The subject of experiment [1] is kidney transplantation patients. Put plainly: Clinical study: pulse wave velocity measurement of arterial stiffness in kidney transplantation patients. It is filed as in vivo, human. Conditions: 360 ug/day for 8 weeks, kidney transplant patients. The protocol:
Clinical Study to study the efficacy and safety of Vitamin K2 supplementation on arterial stiffness, the rigidity of arterial walls, in kidney transplantation patients.
A clinical study was carried out. Arterial wall property measurements were taken at t=0 and t=8 weeks and show a dramatic improvement in arterial wall flexibility. This is good support for concluding that the ingestion of vitamin K, even over this short period, is an effective way of improving endothelial function, reducing arterial stiffness and reducing calcification. […] It is surprising and unexpected because calcification is a slow progressive process and it was thought that reversing this process would also be slow and progressive.
(§1) Participants were enrolled in a clinical trial in which the effects of vitamin K2 were determined for patients who had recently undergone a kidney transplant. At the beginning of the study, patients were subjected to a non-invasive pulse wave velocity measurement to measure arterial stiffness/flexibility, as well as blood analysis. The study participants were then instructed to receive a specific daily dose of MenaQ7 vitamin K2 menaquinone-7 (360 ug/day) for a total of 8 weeks. At the end of 8 weeks, patients were again examined with a follow-up examination, a non-invasive pulse wave velocity measurement and blood analysis and drug treatment was discontinued.

The next experiment relates to matrix gla protein (MGP). Put plainly: Clinical study: blood analysis of matrix gla protein (MGP) carboxylation. Conditions: 360 ug/day for 8 weeks, kidney transplant patients. The class given is in vivo, human. As for the experimental part:
as §1
As part of the blood analysis, carboxylated matrix gla protein (MGP) was measured as a direct measure of vitamin K2 activity. The carboxylated MGP inhibits calcification of blood vessels and Vitamin K2 stimulates carboxylation of MGP.

This note sets out measurements from US11911349B2, “Rapidly improving vascular conditions by administering vitamin K” (NATTOPHARMA AS, priority 2018, dated 2024).

As to `CC(C)=CCC/C(C)=C/CC/C(C)=C/CC/C(C)=C/CC/C(C)=C/CC/C(C)=C/CC/C(C)=C/CC1=C(C)C(=O)c2ccccc2C1=O` [MenaQ7, menaquinone-7], the “mean reduction in measured pulse-wave velocity” value in experiment [1] is given as 30%. The “mean reduction of levels of uncarboxylated MGP” value in the experiment with matrix gla protein (MGP) came to 55%.
